Assay [1] has as its target T1, Gamma-aminobutyric acid receptor subunit alpha-1 (Rattus norvegicus, UniProt P62813).
In assay [2] the target is T2, Cannabinoid receptor 1 (Homo sapiens, UniProt P21554).
In assay [3] the target is Delta-type opioid receptor (Homo sapiens, UniProt P41143).
The target of assay [4] is T3, 5-hydroxytryptamine receptor 2B (Homo sapiens, UniProt P41595). The format is functional, cell-based.
For assay [5], the target named is T4, Sodium-dependent dopamine transporter (Homo sapiens, UniProt Q01959).
T4 sequence (Q01959 whole entry): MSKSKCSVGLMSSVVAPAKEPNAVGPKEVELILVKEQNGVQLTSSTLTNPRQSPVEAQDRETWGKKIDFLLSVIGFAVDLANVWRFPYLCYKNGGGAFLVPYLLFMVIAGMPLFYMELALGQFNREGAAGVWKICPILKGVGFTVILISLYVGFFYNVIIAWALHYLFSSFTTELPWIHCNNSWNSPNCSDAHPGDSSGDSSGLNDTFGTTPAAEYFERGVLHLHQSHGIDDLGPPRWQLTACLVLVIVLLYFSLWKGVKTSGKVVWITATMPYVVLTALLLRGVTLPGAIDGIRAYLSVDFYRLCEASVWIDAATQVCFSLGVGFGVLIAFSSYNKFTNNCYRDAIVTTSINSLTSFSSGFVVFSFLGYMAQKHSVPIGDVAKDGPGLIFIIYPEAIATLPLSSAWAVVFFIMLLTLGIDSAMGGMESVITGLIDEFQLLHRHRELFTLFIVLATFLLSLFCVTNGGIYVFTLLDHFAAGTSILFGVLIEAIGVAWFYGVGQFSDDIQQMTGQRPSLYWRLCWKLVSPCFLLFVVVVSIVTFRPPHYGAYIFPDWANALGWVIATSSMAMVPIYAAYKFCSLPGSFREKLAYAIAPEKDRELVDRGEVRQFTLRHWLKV
The target in assay [6] is T5, D(1A) dopamine receptor (Homo sapiens, UniProt P21728).
T5 sequence (P21728 whole entry): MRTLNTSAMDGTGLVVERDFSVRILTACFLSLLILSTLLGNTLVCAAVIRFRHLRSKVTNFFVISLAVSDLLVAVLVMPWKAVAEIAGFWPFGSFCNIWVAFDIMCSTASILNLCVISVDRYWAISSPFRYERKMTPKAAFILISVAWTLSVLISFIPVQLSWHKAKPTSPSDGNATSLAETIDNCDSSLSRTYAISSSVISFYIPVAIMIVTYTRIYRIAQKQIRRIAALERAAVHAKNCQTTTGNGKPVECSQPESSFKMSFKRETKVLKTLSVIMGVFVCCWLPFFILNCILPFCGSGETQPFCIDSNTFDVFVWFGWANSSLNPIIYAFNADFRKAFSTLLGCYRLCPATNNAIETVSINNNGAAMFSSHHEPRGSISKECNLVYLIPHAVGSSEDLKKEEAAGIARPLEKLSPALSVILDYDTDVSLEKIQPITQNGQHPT
Assay [7] concerns the target T6, 5-hydroxytryptamine receptor 1A (Homo sapiens, UniProt P08908).
T6 sequence (P08908 whole entry): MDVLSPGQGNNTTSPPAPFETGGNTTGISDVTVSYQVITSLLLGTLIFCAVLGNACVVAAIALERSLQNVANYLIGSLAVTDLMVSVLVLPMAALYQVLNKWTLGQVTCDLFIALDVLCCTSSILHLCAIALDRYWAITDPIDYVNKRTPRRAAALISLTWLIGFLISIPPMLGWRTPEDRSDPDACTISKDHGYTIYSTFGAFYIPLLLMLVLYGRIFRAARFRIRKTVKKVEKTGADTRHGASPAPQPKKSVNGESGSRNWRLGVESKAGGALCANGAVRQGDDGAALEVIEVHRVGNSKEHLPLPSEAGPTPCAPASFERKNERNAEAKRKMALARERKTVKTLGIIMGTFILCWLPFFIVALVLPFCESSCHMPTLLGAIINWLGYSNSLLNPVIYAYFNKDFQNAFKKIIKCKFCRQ

Assay [8] has as its target T7, Sodium-dependent noradrenaline transporter (Homo sapiens, UniProt P23975).
In assay [9] the target is T6, 5-hydroxytryptamine receptor 1A. The source holds these as a separate data set.
Assay [10] concerns the target T5, D(1A) dopamine receptor. Type of assay: functional, cell-based.
The target in assay [11] is T8, 5-hydroxytryptamine receptor 2C (Homo sapiens, UniProt P28335).
T8 sequence (P28335 whole entry): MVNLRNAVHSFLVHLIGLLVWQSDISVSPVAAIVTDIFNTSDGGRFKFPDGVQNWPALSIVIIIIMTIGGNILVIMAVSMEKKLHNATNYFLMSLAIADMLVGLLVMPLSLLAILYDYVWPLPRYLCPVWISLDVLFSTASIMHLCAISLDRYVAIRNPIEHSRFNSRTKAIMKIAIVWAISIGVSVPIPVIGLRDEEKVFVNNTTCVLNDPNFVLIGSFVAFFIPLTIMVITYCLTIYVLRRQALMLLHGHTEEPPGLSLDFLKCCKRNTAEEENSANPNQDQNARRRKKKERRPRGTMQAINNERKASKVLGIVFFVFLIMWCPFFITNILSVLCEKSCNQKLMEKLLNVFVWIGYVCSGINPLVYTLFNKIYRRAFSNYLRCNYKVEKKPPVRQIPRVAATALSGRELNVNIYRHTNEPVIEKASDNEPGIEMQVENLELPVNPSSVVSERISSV

Assay [12] addresses T6, 5-hydroxytryptamine receptor 1A. Type of assay: functional, cell-based.
In assay [13] the target is T2, Cannabinoid receptor 1. Type of assay: functional, cell-based.
Assay [14] deals with T3, 5-hydroxytryptamine receptor 2B.
In assay [15] the target is T9, D(3) dopamine receptor (Homo sapiens, UniProt P35462).
T9 sequence (P35462 whole entry): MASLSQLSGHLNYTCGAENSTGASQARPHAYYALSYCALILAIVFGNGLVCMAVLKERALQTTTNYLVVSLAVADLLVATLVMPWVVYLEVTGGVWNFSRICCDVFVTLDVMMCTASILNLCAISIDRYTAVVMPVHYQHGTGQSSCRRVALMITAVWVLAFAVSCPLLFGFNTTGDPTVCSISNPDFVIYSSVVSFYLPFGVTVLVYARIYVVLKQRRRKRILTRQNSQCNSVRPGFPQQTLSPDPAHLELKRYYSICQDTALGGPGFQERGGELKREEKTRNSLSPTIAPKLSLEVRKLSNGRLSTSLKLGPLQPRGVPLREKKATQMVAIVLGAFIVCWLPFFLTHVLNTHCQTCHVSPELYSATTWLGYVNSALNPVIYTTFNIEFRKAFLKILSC
The target of assay [16] is T3, 5-hydroxytryptamine receptor 2B. Type of assay: functional, cell-based. This is another data set of the same source.
For assay [17], the target named is T1, Gamma-aminobutyric acid receptor subunit alpha-1. The source holds these as a separate data set.
In assay [18] the target is T10, Mu-type opioid receptor (Homo sapiens, UniProt P35372).
T10 sequence (P35372 whole entry): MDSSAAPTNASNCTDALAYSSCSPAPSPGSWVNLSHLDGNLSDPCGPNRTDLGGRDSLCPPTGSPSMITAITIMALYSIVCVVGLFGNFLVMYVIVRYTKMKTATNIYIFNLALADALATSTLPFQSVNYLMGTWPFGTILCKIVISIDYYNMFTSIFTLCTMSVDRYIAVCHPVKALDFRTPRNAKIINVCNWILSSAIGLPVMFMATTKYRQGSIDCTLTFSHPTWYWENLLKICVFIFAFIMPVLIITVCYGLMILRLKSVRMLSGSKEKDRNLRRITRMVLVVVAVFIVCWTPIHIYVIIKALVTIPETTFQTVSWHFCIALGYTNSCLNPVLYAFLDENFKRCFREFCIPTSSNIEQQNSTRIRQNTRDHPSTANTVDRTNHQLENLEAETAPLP
The target in assay [19] is T5, D(1A) dopamine receptor. The source holds these as a separate data set.
For assay [20], the target named is T11, 5-hydroxytryptamine receptor 3A (Homo sapiens, UniProt P46098).
T11 sequence (P46098 whole entry): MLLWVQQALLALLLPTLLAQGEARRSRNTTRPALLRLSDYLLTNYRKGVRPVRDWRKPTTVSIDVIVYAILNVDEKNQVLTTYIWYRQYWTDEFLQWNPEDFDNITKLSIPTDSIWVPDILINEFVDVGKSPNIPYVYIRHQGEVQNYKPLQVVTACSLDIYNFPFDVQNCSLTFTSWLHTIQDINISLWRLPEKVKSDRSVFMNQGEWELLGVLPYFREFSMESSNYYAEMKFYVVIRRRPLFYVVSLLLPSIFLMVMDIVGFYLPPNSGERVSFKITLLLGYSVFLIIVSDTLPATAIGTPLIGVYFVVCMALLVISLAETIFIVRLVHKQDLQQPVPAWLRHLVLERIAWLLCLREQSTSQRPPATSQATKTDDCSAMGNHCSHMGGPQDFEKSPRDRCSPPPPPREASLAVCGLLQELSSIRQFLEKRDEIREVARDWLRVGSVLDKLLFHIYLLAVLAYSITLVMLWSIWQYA
The format is functional.

Assay [21] deals with Glutamate receptor ionotropic, NMDA 1 (Rattus norvegicus, UniProt P35439).
For assay [22], the target named is T5, D(1A) dopamine receptor. The source holds these as a separate data set.
The target in assay [23] is T10, Mu-type opioid receptor. This is another data set of the same source.
Assay [24] concerns the target Kappa-type opioid receptor (Homo sapiens, UniProt P41145).
For assay [25], the target named is T7, Sodium-dependent noradrenaline transporter. This is another data set of the same source.
The target of assay [26] is Neuronal acetylcholine receptor subunit alpha-4 (Homo sapiens, UniProt P43681).
For assay [27], the target named is T1, Gamma-aminobutyric acid receptor subunit alpha-1. The format is functional.
Assay [28] addresses Voltage-dependent N-type calcium channel subunit alpha-1B (Rattus norvegicus, UniProt Q02294). Type of assay: functional.
Assay [29] deals with T6, 5-hydroxytryptamine receptor 1A. The format is functional, cell-based. This is another data set of the same source.
Assay [30] deals with T3, 5-hydroxytryptamine receptor 2B. Type of assay: functional, cell-based. This is another data set of the same source.
Assay [31] concerns the target T12, D(4) dopamine receptor (Homo sapiens, UniProt P21917).
T12 sequence (P21917 whole entry): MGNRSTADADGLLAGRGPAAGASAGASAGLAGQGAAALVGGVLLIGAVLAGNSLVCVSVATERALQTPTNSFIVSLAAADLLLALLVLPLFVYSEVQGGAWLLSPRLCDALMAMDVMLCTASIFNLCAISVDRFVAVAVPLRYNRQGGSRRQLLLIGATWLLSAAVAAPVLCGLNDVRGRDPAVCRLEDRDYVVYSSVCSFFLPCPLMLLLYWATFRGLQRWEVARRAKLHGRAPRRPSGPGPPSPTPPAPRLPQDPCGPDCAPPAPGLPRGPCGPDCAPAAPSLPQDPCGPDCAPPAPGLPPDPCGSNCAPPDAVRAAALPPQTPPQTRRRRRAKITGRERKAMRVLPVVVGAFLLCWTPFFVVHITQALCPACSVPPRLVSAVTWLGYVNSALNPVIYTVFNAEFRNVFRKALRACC

The target of assay [32] is T9, D(3) dopamine receptor. This is another data set of the same source.
For assay [33], the target named is T4, Sodium-dependent dopamine transporter. This is another data set of the same source.
Assay [34] concerns the target T2, Cannabinoid receptor 1. The format is functional, cell-based. This is another data set of the same source.
Assay [35] concerns the target Acetylcholinesterase (Homo sapiens, UniProt P22303). The format is functional.
For assay [36], the target named is Gamma-aminobutyric acid receptor subunit alpha-1/alpha-2/beta-2/gamma-2 (Homo sapiens, UniProt P14867+P18507+P47869+P47870). Type of assay: protein-complex assay.
Assay [37] deals with T2, Cannabinoid receptor 1. The format is functional.
For assay [38], the target named is Sodium channel protein type 5 subunit alpha (Homo sapiens, UniProt Q14524). Type of assay: functional, cell-based.

Our source for the AC50 values is ChEMBL document CHEMBL5291721, “A preclinical secondary pharmacology resource illuminates target-adverse drug reaction associations of marketed drugs” (Nat Commun, 2023).
Also: assay procedure not described here.

T2 sequence (P21554 whole entry): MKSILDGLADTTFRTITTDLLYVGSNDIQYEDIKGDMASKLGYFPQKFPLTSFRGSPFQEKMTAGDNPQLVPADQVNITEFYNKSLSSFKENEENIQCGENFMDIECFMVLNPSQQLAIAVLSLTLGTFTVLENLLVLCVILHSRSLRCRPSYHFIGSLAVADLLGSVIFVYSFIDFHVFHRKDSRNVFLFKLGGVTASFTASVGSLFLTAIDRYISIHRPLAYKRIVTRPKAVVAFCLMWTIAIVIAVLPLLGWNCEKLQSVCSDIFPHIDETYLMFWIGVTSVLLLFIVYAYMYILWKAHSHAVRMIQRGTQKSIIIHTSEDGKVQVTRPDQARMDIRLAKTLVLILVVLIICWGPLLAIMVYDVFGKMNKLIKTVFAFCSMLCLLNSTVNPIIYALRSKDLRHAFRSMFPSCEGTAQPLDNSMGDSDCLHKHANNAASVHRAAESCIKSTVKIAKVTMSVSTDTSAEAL
T3 sequence (P41595 whole entry): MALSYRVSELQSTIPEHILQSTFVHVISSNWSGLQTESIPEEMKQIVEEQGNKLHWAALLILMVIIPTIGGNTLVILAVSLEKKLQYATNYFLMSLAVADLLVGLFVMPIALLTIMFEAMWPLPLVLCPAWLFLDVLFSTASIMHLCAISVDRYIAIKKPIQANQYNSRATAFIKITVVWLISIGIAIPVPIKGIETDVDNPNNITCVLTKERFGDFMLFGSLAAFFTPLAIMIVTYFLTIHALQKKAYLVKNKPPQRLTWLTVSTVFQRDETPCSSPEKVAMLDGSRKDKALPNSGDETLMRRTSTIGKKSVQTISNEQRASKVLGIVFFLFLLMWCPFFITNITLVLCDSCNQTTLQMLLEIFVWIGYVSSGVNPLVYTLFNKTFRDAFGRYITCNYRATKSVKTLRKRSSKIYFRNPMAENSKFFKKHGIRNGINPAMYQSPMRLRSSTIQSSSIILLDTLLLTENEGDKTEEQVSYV
T1 sequence (P62813 whole entry): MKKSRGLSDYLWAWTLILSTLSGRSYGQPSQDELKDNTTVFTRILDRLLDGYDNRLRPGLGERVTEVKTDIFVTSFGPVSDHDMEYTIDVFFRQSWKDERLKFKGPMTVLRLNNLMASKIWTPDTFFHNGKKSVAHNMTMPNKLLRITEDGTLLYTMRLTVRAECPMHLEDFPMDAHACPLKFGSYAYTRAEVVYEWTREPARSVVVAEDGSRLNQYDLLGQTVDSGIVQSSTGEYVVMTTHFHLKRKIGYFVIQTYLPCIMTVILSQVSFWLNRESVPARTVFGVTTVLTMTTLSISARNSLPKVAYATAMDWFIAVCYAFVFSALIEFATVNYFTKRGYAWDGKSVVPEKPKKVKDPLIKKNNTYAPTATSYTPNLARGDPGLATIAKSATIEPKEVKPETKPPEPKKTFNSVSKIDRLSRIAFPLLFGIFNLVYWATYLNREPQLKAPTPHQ
T7 sequence (P23975 whole entry): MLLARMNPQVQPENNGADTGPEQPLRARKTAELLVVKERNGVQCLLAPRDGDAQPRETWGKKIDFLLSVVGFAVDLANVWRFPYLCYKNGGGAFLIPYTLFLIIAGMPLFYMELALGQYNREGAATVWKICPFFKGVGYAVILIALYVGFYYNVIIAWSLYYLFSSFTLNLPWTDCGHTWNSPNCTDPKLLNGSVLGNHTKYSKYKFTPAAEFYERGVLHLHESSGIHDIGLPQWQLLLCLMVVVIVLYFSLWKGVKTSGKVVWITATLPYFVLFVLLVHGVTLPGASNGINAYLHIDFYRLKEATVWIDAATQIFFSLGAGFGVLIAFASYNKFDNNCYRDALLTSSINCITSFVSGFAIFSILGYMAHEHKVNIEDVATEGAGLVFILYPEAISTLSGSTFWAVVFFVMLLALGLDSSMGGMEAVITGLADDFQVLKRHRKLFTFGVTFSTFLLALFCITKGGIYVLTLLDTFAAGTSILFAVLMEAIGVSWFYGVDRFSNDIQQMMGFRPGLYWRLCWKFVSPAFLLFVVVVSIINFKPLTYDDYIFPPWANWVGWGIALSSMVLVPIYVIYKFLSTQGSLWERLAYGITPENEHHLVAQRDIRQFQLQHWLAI
Chain of Kappa-type opioid receptor (P41145 whole entry): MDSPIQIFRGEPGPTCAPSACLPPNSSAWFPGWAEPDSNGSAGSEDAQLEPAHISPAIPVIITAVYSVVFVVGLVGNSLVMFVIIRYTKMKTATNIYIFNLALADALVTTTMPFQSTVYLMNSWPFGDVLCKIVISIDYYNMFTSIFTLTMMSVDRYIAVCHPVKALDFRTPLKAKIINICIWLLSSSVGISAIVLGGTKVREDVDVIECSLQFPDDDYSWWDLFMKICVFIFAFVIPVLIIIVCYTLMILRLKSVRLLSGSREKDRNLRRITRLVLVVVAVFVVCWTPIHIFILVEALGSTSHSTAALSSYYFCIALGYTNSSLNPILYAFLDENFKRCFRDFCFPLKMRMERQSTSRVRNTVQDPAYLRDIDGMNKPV
Chain of Delta-type opioid receptor (P41143 whole entry): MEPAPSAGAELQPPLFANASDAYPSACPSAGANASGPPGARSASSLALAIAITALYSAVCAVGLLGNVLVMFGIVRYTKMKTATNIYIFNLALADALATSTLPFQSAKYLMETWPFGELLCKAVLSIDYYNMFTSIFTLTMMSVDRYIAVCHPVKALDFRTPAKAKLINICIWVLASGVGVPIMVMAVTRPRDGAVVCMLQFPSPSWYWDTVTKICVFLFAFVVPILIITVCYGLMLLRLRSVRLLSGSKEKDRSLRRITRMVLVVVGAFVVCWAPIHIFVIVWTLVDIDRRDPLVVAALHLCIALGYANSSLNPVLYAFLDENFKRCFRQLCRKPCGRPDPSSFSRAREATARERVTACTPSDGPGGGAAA

In general, AC50 refers to the concentration at which the activity in the assay is half-maximal. Regarding `COC(=O)C1=C(C)NC(C)=C(C(=O)OC)C1c1ccccc1[N+](=O)[O-]` [NIFEDIPINE], the AC50 in assay [1] was more than 10 µM; in [2], more than 10 µM; in assay [3], more than 30 µM; in [4], more than 30 µM; in assay [5], more than 10 µM; in assay [6] it was more than 10 µM. For the same compound, the AC50 in assay [7] is more than 10 µM; in [8] it was more than 30 µM; in [9], more than 30 µM; in assay [10] it was more than 10 µM; in assay [11], more than 30 µM; in assay [12] it was more than 10 µM. In addition, the AC50 in [13] was more than 30 µM; in assay [14], more than 10 µM; in [15], more than 10 µM; in assay [16], more than 10 µM; in assay [17] it was more than 30 µM; in assay [18], more than 30 µM. Besides, the concentration at half-maximal activity (AC50) in assay [19] was 26 µM; in [20], more than 30 µM; in assay [21], more than 10 µM; in assay [22], more than 30 µM; in [23], 11 µM; in [24], more than 10 µM. For the same compound, the AC50 in assay [25] was more than 10 µM; in assay [26] it was more than 10 µM; in assay [27], more than 10 µM; in assay [28] it was more than 10 µM; in assay [29] it was more than 10 µM; in assay [30], 6.8 µM. The AC50 in assay [31] is more than 10 µM; in assay [32] it was more than 30 µM; in [33] it was more than 30 µM.

Consider `OCCOCCN1CCN(C2=Nc3ccccc3Sc3ccccc32)CC1` [QUETIAPINE], for which the AC50 in assay [34] was more than 30 µM; in [13], more than 30 µM; in assay [35], more than 30 µM; in assay [36], more than 30 µM; in assay [37], more than 10 µM.

`N#C[C@@H]1C[C@@H]2C[C@@H]2N1C(=O)[C@@H](N)C12CC3CC(CC(O)(C3)C1)C2` [SAXAGLIPTIN ANHYDROUS] gave an AC50 in assay [38] of more than 15 µM.
